Assay results from US20200087248A1, “Fluoroallylamine Derivative And Use Thereof” (SICHUAN KELUN-BIOTECH BIOPHARMACEUTICAL CO., LTD., priority 2017, published 2020).
Structures can show the parent of a compound that is named as a salt.

Assays:
[1] = molecular target: T1, VAP-1 (Homo sapiens, UniProt Q16853); experiment: Inhibition of the enzymatic activity of VAP-1 in vitro (Amplex Red); format: biochemical; conditions: VAP-1 protein about 20 nM, 10 min pre-incubation, benzylamine substrate; read-out: IC50, inhibition against the enzymatic activity of VAP-1
T1 construct: purchased R&D Systems
T1 sequence (Q16853 1-763): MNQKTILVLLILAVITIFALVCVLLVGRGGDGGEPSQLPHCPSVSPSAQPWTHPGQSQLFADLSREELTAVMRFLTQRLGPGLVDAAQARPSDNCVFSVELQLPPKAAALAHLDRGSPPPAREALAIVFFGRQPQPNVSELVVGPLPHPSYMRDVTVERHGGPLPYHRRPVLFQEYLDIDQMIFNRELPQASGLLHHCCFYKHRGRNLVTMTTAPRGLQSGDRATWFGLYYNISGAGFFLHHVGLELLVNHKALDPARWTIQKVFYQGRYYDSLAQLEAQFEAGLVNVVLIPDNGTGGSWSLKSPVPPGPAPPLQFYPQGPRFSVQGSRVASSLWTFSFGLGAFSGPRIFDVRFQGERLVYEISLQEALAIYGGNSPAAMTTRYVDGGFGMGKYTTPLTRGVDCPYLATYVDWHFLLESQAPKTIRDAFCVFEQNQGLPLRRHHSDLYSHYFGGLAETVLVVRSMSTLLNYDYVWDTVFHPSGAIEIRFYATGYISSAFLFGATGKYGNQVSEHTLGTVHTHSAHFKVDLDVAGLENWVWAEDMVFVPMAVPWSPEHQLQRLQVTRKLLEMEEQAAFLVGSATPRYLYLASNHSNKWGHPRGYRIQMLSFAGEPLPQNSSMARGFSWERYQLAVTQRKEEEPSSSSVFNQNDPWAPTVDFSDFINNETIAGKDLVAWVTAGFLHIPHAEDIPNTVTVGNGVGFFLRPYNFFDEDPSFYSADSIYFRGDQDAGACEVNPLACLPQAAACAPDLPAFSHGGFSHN
Method in brief: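 About 20 nM recombinant VAP-1 preincubated with compound 10 min at RT in 50 mM PBS pH 7.4; reaction started with […] benzylamine, 1 U/mL HRP and 200 μM Amplex Red. Kinetic fluorescence (Ex/Em 540/590 nm) slope gave rate; IC50 by four-parameter fit.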

[2] = molecular target: T2, DAO (Homo sapiens, UniProt P19801); experiment: Inhibition of the enzymatic activity of DAO; format: biochemical; conditions: DAO 15 μg/ml, histamine substrate; read-out: IC50, inhibition against the enzymatic activity of DAO
T2 construct: purchased R&D Systems
T2 sequence (P19801 20-751): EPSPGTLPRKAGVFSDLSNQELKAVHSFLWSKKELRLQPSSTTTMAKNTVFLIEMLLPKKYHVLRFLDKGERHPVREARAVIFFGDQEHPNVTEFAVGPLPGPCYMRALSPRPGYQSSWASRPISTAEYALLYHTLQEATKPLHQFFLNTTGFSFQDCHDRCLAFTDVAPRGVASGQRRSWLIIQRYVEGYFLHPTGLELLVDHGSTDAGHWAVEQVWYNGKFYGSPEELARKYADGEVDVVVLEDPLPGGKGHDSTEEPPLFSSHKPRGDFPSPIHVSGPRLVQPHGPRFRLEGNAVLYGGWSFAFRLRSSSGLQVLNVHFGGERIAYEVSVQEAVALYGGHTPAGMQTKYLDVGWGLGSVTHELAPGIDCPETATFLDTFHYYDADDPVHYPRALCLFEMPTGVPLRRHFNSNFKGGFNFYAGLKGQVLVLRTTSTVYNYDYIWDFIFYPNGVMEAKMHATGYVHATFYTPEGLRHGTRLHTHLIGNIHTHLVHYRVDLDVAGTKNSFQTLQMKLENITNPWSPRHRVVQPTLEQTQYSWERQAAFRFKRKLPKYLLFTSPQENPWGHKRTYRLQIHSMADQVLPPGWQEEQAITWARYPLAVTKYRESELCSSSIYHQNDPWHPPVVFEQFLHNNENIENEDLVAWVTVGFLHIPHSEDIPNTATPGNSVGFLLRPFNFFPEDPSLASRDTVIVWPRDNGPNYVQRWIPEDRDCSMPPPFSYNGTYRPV
Method: Inhibition Experiment Against the Enzymatic Activity of DAO (Diamine Oxidase)
1. Test kit: Amplex® Red Monoamine Oxidase Assay, Manufacturer: ThermoFisher
Protein: DAO, manufacturer: R&D Systems
DAO protein (15 μg/ml) and different concentrations of the test compound were pre-incubated at room temperature for 20 minutes, and then 100 μM Histamine-dihydrochloride, 1 U/mL HRP and 200 μM Amplex Red reagent were added to start the reaction. The inhibition rate of each concentration groups were calculated according to the experimental method of MAO-A.

Row | Molecule | IC50 [1] | IC50 [2]
1 | CC1(C)Cc2cc(OC/C(=C/F)CN)ccc2C(=O)N1 [HC38-E, (E)-6-((2-(aminomethyl)-3-fluoroallyl)oxy)-3,3-dimethyl-3,4-dihydroisoquinolin-1(2H)-one hydrochloride] | 2.85 ± 0.3 nM | 
2 | NC/C(=C\F)COc1ccc2c(c1)C(=O)CC2 [TM7-E, (E)-6-((2-aminomethyl-3-fluoroallyl)oxy)-2,3-dihydro-1-indenone trifluoroacetate] | 3 ± 0.7 nM | > 1000 nM
3 | (E)-6-((2-(methylamino)-3-fluoroallyl)oxy)-3,3-dimethyl-3,4-dihydro-isoquinolin-1(2H)-one trifluoroacetate [TM38-E] | 4.7 ± 1.1 nM | > 1000 nM
4 | (E)-6-((2-(methylamino)-3-fluoroallyl)oxy)-2-methyl-3,4-dihydroisoquinolin-1(2H)-one trifluoroacetate [TM66-E] | 2 ± 0.4 nM | > 100 nM
5 | NC/C(=C\F)COc1ccc(C(=O)Nc2ccccc2)cc1 [TM1-E, (E)-N-phenyl-4-((2-aminomethyl-3-fluoroallyl)oxy)-benzamide trifluoroacetate] | 1.6 ± 0.2 nM | > 100 nM

Now from value to molecule:

Row | IC50 [1] | IC50 [2] | Molecule
6 | 4.3 ± 0.6 nM | > 100 nM | NC/C(=C\F)COc1ccc(C(=O)NC2CCOCC2)cc1 [TM76-E, (E)-N-(tetrahydro-2H-pyran-4-yl)-4-((2-aminomethyl-3-fluoroallyl)oxy)-benzamide trifluoroacetate]
7 | 3.7 ± 0.8 nM |  | NC/C(=C/F)COc1ccc2c(c1)CCNC2=O [TM26-Z, (Z)-6-((2-aminomethyl-3-fluoroallyl)oxy)-3,4-dihydroisoquinolin-1(2H)-one trifluoroacetate]
8 | 1.2 ± 0.2 nM |  | NC/C(=C\F)COc1ccc(-c2ncccn2)cc1 [TM39-E, (E)-2-(4-(2-pyrimidyl)phenoxymethyl)-3-fluoroallylamine trifluoroacetate]
9 | 6.5 ± 1.8 nM | > 100 nM | NC/C(=C/F)COc1ccc(C(=O)NCc2ccccn2)cc1 [TM112-Z, (Z)-4-((2-aminomethyl-3-fluoroallyl)oxy)-N-(pyridin-2-ylmethyl)benzamide trifluoroacetate]
